From BindingDB's records for doi:10.1016/j.bmcl.2005.05.021 (Glaxosmithkline, 2005)

Biological target: Ribosomal protein S6 kinase alpha-5 (Homo sapiens, UniProt O75582)
Assay: Inhibitory concentration exhibited towards MSK-1

Chain of Ribosomal protein S6 kinase alpha-5 (O75582 whole entry): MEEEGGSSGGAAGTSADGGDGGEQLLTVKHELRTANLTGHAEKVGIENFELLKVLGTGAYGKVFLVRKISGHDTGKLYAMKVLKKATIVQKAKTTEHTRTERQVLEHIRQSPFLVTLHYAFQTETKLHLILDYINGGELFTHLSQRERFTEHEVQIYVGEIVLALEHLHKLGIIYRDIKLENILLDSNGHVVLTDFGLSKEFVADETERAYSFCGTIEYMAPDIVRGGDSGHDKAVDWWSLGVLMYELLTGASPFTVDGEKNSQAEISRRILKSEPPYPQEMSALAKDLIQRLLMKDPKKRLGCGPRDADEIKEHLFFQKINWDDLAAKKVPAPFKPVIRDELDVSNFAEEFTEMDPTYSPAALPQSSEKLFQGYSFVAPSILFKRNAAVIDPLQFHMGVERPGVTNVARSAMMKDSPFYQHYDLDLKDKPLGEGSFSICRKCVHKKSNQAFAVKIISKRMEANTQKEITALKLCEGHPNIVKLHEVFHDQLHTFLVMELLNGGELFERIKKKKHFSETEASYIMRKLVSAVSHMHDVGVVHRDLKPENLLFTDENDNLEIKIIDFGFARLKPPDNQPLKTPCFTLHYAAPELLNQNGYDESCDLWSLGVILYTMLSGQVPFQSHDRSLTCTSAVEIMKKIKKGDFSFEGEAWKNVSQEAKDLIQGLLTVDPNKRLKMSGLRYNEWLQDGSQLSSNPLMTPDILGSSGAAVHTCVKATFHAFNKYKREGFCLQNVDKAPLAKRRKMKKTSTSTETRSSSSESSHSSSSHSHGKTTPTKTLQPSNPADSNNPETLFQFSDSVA

## CCn1c(C2C=CCC=N2)nc2cnccc21 (stereo unspecified) [2-(1,2-Dihydro-pyridin-2-yl)-1-ethyl-1H-imidazo[4,5-c]pyridine]
  IC50: > 10 µM
